Where two headings read alike, the source gives them in different places. Marks after values point to notes of the source that are not given here.
Columns and labels:
[1] = Determination of pKa of formulated lipids (TNS fluorescence assay in lipid nanoparticles); format: physicochemical; details: cationic lipid formulated in lipid nanoparticles (cationic lipid/DSPC/cholesterol/PEG-lipid 47.5/10/40.7/1.8 mol %)
Experimental: As described elsewhere, the pKa of formulated cationic lipids is correlated with the effectiveness of LNPs for delivery of nucleic acids (see Jayaraman et al, Angewandte Chemie, International Edition (2012), 51(34), 8529-8533; Semple et al, Nature Biotechnology 28, 172-176 (2010)). The preferred range of pKa is ˜5 to ˜7. The pKa of each cationic lipid was determined in lipid nanoparticles using an assay based on fluorescence of 2-(p-toluidino)-6-napthalene sulfonic acid (TNS). Lipid nanoparticles comprising cationic lipid/DSPC/cholesterol/PEG-lipid (47.5/10/40.7/1.8 mol %) in PBS at a concentration of 0.4 mM total lipid were prepared using the in-line process as described in Example 1. TNS was prepared as a 100 μM stock solution in distilled water. Vesicles were diluted to 24 μM lipid in 2 mL of buffered solutions containing, 10 mM HEPES, 10 mM MES, 10 mM ammonium acetate, 130 mM NaCl, where the pH ranged from 2.5 to 11. An aliquot of the TNS solution was added to give a final concentration of 1 μM and following vortex mixing fluorescence intensity was measured at room temperature in a SLM Aminco Series 2 Luminescence Spectrophotometer using excitation and emission wavelengths of 321 nm and 445 nm. A sigmoidal best fit analysis was applied to the fluorescence data and the pKa was measured as the pH giving rise to half-maximal fluorescence intensity.

[2] = test system: luciferase expression in the liver; assay: In vivo luciferase mRNA expression rodent model (liver luciferase after tail vein injection of mRNA-LNP); parameters: species or system mice; details: for Liver Luc @ 0.5 mg/kg (ng luc/g liver): 0.5 mg mRNA/kg; for Liver Luc @ 0.5 mg/kg (ng luc/g liver) / Liver Luc (ng luc/g liver), determined at 0.3 mg/kg / Liver Luc (ng luc/g liver), determined at 1.0 mg/kg: tail vein injection, liver 4 hours after administration; for Liver Luc (ng luc/g liver), determined at 0.3 mg/kg: 0.3 mg/kg (footnote *); for efficacy toward activation of the Luciferase mRNA expression as compared with non-fluorinated analogue: 0.3 mg/kg and 1.0 mg/kg, versus I-5 analogue and I-11 analogue respectively
Experimental: Lipid nanoparticles were prepared and tested according to the general procedures described in PCT Pub. Nos. WO 2015/199952 and WO 2017/004143, the full disclosures of which are incorporated herein by reference. Briefly, cationic lipid, DSPC, cholesterol and PEG-lipid were solubilized in ethanol at a molar ratio of about 50:10:38.5:1.5 or about 47.5:10:40.7:1.8. Lipid nanoparticles (LNP) were prepared at a total lipid to mRNA weight ratio of approximately 10:1 to 40:1. The mRNA is diluted to 0.2 mg/mL in 10 to 50 mM citrate or acetate buffer, pH 4. Syringe pumps were used to mix the ethanolic lipid solution with the mRNA aqueous solution at a ratio of about 1:5 to 1:3 (vol/vol) with total flow rates above 15 mL/min. The ethanol was then removed and the external buffer replaced with PBS by dialysis. Finally, the lipid nanoparticles were filtered through a 0.2 µm pore sterile filter. Lipid nanoparticle particle size was approximately 55-95 nm diameter, and in some instances approximately 70-90 nm diameter as determined by quasi-elastic light scattering using a Malvern Zetasizer Nano ZS (Malvern, UK).
Studies were performed in 6-8 week old female C57BL/6 mice (Charles River) or 8-10 week old CD-1 (Harlan) mice (Charles River) according to guidelines established by an institutional animal care committee (ACC) and the Canadian Council on Animal Care (CCAC). Varying doses of mRNA-lipid nanoparticle were systemically administered by tail vein injection and animals euthanized at a specific time point (e.g., 4 hours) post-administration. Liver and spleen were collected in pre-weighed tubes, weights determined, immediately snap frozen in liquid nitrogen and stored at −80° C. until processing for analysis.
For liver, approximately 50 mg was dissected for analyses in a 2 mL FastPrep tubes (MP Biomedicals, Solon OH). ¼″ ceramic sphere (MP Biomedicals) is added to each tube and 500 μL of Glo Lysis Buffer—GLB (Promega, Madison WI) equilibrated to room temperature is added to liver tissue. Liver tissues were homogenized with the FastPrep24 instrument (MP Biomedicals) at 2×6.0 m/s for 15 seconds. Homogenate was incubated at room temperature for 5 minutes prior to a 1:4 dilution in GLB and assessed using SteadyGlo Luciferase assay system (Promega). Specifically, 50 μL of diluted tissue homogenate was reacted with 50 μL of SteadyGlo substrate, shaken for 10 seconds followed by 5 minute incubation and then quantitated using a CentroXS^3 LB 960 luminometer (Berthold Technologies, Germany). The amount of protein assayed was determined by using the BCA protein assay kit (Pierce, Rockford IL). Relative luminescence units (RLU) were then normalized to total μg protein assayed. To convert RLU to ng luciferase a standard curve was generated with QuantiLum Recombinant Luciferase (Promega).
The FLuc mRNA (L-6107 or L-7202) from Trilink Biotechnologies will express a luciferase protein, originally isolated from the firefly, Photimus pyralis. FLuc is commonly used in mammalian cell culture to measure both gene expression and cell viability. It emits bioluminescence in the presence of the substrate, luciferin. This capped and poly-adenylated mRNA was fully substituted with respect to uridine and/or cytidine nucleosides.
Representative compounds of the disclosure shown in Table 2 were formulated using the following molar ratio: 50% cationic lipid/10% distearoylphosphatidylcholine (DSPC)/38.5% Cholesterol/1.5% PEG lipid 2-[2-(ω-methoxy(polyethyleneglycol2000)ethoxy]-N,N-ditetradecylacetamide) or 47.5% cationic lipid/10% DSPC/40.7% Cholesterol/1.8% PEG lipid. Relative activity was determined by measuring luciferase expression in the liver 4 hours following administration via tail vein injection as described in Example 1. The activity was compared at a dose of 1.0 or 0.5 or 0.3 mg mRNA/kg and expressed as ng luciferase/g liver measured 4 hours after administration, as described in Example 1. Compound numbers in Table 2 refer to the compound numbers of Table 1. […]

[3] = probe 2-(p-toluidino)-6-napthalene sulfonic acid (TNS), 1 µM final, read-out: pKa

CCCCCCCCC(CCCCCC)COC(=O)CCCCCC(CCCCCC(=O)OCC(CCCCCC)CCCCCCCC)N(CCCCCN(C)C)C(=O)C(F)(F)C(F)(F)C(F)(F)C(F)(F)C(F)(F)C(F)(F)C(F)(F)F (centres unmarked) [Compound I-9, BIS(2-HEXYLDECYL) 7-(N-(5-(DIMETHYLAMINO)PENTYL)-2,2,3,3,4,4,5,5,6,6,7,7,8,8,8-PENTADECAFLUOROOCTANAMIDO)TRIDECANEDIOATE]
pKa [1, 3]: 6.32 | Liver Luc @ 0.5 mg/kg (ng luc/g liver) [2]: 25 ± 16 ng luc/g liver

CCCCCCC(CCCC)COC(=O)CCCCCC(CCCCCC(=O)OCC(CCCC)CCCCCC)N(CCCCCN(C)C)C(=O)C(F)(F)C(F)(F)C(F)(F)C(F)(F)C(F)(F)C(F)(F)C(F)(F)F (centres unmarked) [Compound I-11, BIS(2-BUTYLOCTYL) 7-(N-(5-(DIMETHYLAMINO)PENTYL)-2,2,3,3,4,4,5,5,6,6,7,7,8,8,8-PENTADECAFLUOROOCTANAMIDO)TRIDECANEDIOATE]
pKa [1, 3]: 6.28 | Liver Luc (ng luc/g liver), determined at 0.3 mg/kg [2]: 3411 ± 803* ng luc/g liver | efficacy toward activation of the Luciferase mRNA expression as compared with non-fluorinated analogue [2]: increased efficacy | Liver Luc (ng luc/g liver), determined at 1.0 mg/kg [2]: 45575 ± 11088 ng luc/g liver

CCCCCCC(CCCC)COC(=O)CCCCCC(CCCCCC(=O)OCC(CCCC)CCCCCC)N(CCCCN(C)C)C(=O)C(F)(F)C(F)(F)C(F)(F)C(F)(F)C(F)(F)C(F)(F)C(F)(F)F (centres unmarked) [Compound I-10, BIS(2-BUTYLOCTYL) 7-(N-(4-(DIMETHYLAMINO)BUTYL)-2,2,3,3,4,4,5,5,6,6,7,7,8,8,8-PENTADECAFLUOROOCTANAMIDO)TRIDECANEDIOATE]
pKa [1, 3]: 6.18 | Liver Luc @ 0.5 mg/kg (ng luc/g liver) [2]: 62 ± 44 ng luc/g liver

CCCCCCCCC(CCCCCC)COC(=O)CCCCCC(CCCCCC(=O)OCC(CCCCCC)CCCCCCCC)N(CCCN(C)C)C(=O)CCCC(F)(F)F (centres unmarked) [Compound I-13, BIS(2-HEXYLDECYL) 7-(N-(3-(DIMETHYLAMINO)PROPYL)-5,5,5-TRIFLUOROPENTANAMIDO)TRIDECANEDIOATE]
pKa [1, 3]: 6.68 | Liver Luc @ 0.5 mg/kg (ng luc/g liver) [2]: 658 ± 262 ng luc/g liver

CCCCCCC(CCCC)COC(=O)CCCCCC(CCCCCC(=O)OCC(CCCC)CCCCCC)N(CCCN(C)C)C(=O)CCCC(F)(F)F (centres unmarked) [Compound I-15, BIS(2-BUTYLOCTYL) 7-(N-(3-(DIMETHYLAMINO)PROPYL)-5,5,5-TRIFLUOROPENTANAMIDO)TRIDECANEDIOATE]
pKa [1, 3]: 6.78 | Liver Luc @ 0.5 mg/kg (ng luc/g liver) [2]: 1007 ± 671 ng luc/g liver

CCCCCCCCC(CCCCCC)COC(=O)CCCCCC(CCCCCC(=O)OCC(CCCCCC)CCCCCCCC)N(CCCCN(C)C)C(=O)C(F)(F)C(F)(F)C(F)(F)C(F)(F)C(F)(F)C(F)(F)C(F)(F)F (centres unmarked) [Compound I-7, BIS(2-HEXYLDECYL) 7-(N-(4-(DIMETHYLAMINO)BUTYL)-2,2,3,3,4,4,5,5,6,6,7,7,8,8,8-PENTADECAFLUOROOCTANAMIDO)TRIDECANEDIOATE]
pKa [1, 3]: 6.08 | Liver Luc @ 0.5 mg/kg (ng luc/g liver) [2]: 39 ± 14 ng luc/g liver

CCCCCCCCC(CCCCCC)COC(=O)CCCCCCCCC(CCCCCCCCC(=O)OCC(CCCCCC)CCCCCCCC)N(CCCN(C)C)C(=O)CCCC(F)(F)F (centres unmarked) [Compound I-14, BIS(2-HEXYLDECYL) 10-(N-(3-(DIMETHYLAMINO)PROPYL)-5,5,5-TRIFLUOROPENTANAMIDO)NONADECANEDIOATE]
pKa [1, 3]: 6.28 | Liver Luc @ 0.5 mg/kg (ng luc/g liver) [2]: 331 ± 127 ng luc/g liver

CCCCCCCCCCN(C(=O)C(F)CCCN(C)C)C(CCCCCCCCC(=O)OCC(CCCC)CCCCCC)CCCCCCCCC(=O)OCC(CCCC)CCCCCC (centres unmarked) [Compound I-24, BIS(2-BUTYLOCTYL) 10-(N-DECYL-5-(DIMETHYLAMINO)-2-FLUOROPENTANAMIDO)NONADECANEDIOATE]
pKa [1, 3]: 6.04 | Liver Luc (ng luc/g liver), determined at 0.3 mg/kg [2]: 9411 ± 1733 ng luc/g liver

CCCCC(CC)COC(=O)CCCCCCCCC(CCCCCCCCC(=O)OCC(CC)CCC)N(CCCCN(C)C)C(=O)C(F)(F)C(F)(F)C(F)(F)C(F)(F)C(F)(F)C(F)(F)C(F)(F)F (centres unmarked) [I-5 analogue, reference compound]
pKa [1]: 6.86 | Liver Luc (ng luc/g liver), determined at 0.3 mg/kg [2]: 666 ± 589 ng luc/g liver | Liver Luc (ng luc/g liver), determined at 1.0 mg/kg [2]: 1338 ± 798 ng luc/g liver

CCCCCCC(CCCC)COC(=O)CCCCCC(CCCCCC(=O)OCC(CCCC)CCCCCC)N(CCN(C)C)C(=O)CCCC(F)(F)F (centres unmarked) [Compound I-16, BIS(2-BUTYLOCTYL) 7-(N-(2-(DIMETHYLAMINO)ETHYL)-5,5,5-TRIFLUOROPENTANAMIDO)TRIDECANEDIOATE]
pKa [1, 3]: 5.97 | Liver Luc @ 0.5 mg/kg (ng luc/g liver) [2]: 1233 ± 305 ng luc/g liver

CCCCCCCCC(CCCCCC)COC(=O)CCCCCC(CCCCCC(=O)OCC(CCCCCC)CCCCCCCC)N(CCN1CCN(C)CC1)C(=O)C(F)(F)C(F)(F)C(F)(F)C(F)(F)C(F)(F)C(F)(F)C(F)(F)F (centres unmarked) [Compound I-8, BIS(2-HEXYLDECYL) 7-(2,2,3,3,4,4,5,5,6,6,7,7,8,8,8-PENTADECAFLUORO-N-(2-(4-METHYLPIPERAZIN-1-YL)ETHYL)OCTANAMIDO)TRIDECANEDIOATE]
pKa [1, 3]: 5.58 | Liver Luc @ 0.5 mg/kg (ng luc/g liver) [2]: 0 ng luc/g liver

CCCCC(CC)COC(=O)CCCCCCCCC(CCCCCCCCC(=O)OCC(CC)CCCC)N(CCCCN(C)C)C(=O)C(F)(F)C(F)(F)C(F)(F)C(F)(F)C(F)(F)C(F)(F)C(F)(F)F (centres unmarked) [Compound I-5, BIS(2-ETHYLHEXYL) 10-(N-(4-(DIMETHYLAMINO)BUTYL)-2,2,3,3,4,4,5,5,6,6,7,7,8,8,8-PENTADECAFLUOROOCTANAMIDO)NONADECANEDIOATE]
pKa [1, 3]: 5.92 | Liver Luc (ng luc/g liver), determined at 0.3 mg/kg [2]: 3645 ± 1347 ng luc/g liver | efficacy toward activation of the Luciferase mRNA expression as compared with non-fluorinated analogue [2]: increased efficacy | Liver Luc (ng luc/g liver), determined at 1.0 mg/kg [2]: 21585 ± 6204 ng luc/g liver

Reference: patent US20250092002A1, “FLUORINATED CATIONIC LIPIDS FOR USE IN LIPID NANOPARTICLES” (Acuitas Therapeutics, Inc., priority 2021, published 2025)
